Values quoted from earlier work as cited in US6503482B1, “Non-chlorofluorocarbon aerosol formulations” (Schering Corporation, priority 1993, dated 2003).
Where two headings read alike, the source gives them in different places.

Details: absolute pressure

FCC(F)(F)F [HFC 134a, 1,1,1,2 tetrafluoroethane]
vapor pressure (same value in psia): 84.7 psia
vapor pressure (stated too high for use in metered dose inhalators): 5.84×10^5 newton/meter^2 absolute
